{"source": "ChEMBL document CHEMBL3596169", "about": "“Pyridine hydroxamic acids are specific anti-HCV agents affecting HDAC6” (Bioorg Med Chem Lett, 2015)", "key": {"[1]": {"target": "T1, Protein deacetylase HDAC6 (Homo sapiens) (UniProt Q9UBN7)", "T1 sequence (whole entry)": "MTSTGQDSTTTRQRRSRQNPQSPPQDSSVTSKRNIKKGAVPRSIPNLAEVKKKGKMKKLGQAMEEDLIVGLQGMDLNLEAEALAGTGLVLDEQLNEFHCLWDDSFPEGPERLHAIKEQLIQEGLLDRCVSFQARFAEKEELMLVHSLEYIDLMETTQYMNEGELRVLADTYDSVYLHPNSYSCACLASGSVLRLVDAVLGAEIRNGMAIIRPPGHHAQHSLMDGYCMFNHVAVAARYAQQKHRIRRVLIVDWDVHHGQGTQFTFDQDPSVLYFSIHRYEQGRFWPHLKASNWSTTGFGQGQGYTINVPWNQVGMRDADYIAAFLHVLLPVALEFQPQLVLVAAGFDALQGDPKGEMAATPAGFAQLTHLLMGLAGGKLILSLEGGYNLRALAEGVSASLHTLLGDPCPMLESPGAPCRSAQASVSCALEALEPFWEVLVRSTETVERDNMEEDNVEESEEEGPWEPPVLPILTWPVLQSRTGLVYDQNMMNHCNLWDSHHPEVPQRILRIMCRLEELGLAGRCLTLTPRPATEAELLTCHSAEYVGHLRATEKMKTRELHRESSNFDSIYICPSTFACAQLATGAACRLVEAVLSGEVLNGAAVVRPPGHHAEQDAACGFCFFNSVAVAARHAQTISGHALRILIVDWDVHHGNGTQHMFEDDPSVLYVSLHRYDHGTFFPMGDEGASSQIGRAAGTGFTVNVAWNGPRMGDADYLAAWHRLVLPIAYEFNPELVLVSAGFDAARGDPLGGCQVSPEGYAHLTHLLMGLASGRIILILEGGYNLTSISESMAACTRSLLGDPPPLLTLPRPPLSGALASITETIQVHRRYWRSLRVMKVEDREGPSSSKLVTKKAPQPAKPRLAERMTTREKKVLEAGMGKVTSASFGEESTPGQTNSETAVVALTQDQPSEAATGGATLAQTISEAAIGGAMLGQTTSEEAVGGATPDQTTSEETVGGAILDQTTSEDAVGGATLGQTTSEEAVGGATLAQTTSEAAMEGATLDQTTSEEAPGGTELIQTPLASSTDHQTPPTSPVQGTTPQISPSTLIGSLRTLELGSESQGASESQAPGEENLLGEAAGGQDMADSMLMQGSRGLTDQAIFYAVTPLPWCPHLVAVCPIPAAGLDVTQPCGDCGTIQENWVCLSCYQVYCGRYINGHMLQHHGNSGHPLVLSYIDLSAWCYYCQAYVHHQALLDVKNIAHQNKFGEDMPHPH", "assay": "Inhibition of HDAC6 in human Huh-luc/neo7 cells assessed as alpha-tubulin acetylation at 5 to 60 uM by Western blotting analysis", "assay_type": "cell-based"}, "[2]": {"test_system": "Hepatitis C virus", "assay": "Antiviral activity against HCV infected in human Huh-luc/neo7 cells after 72 hrs by luciferase assay", "assay_type": "functional, organism-based, Hepacivirus hominis"}, "[3]": {"assay": "Selectivity index, ratio of CC50 for human HuH7 cells transfected with luc/neo plasmid to EC50 for HCV infected in human Huh-luc/neo7 cells", "parameters": "species or system Huh-7"}, "[4]": {"assay": "Cytotoxicity against human HuH7 cells transfected with luc/neo plasmid assessed as cell viability after 72 hrs by MTT method", "assay_type": "cell-based, Huh-7"}, "[5]": {"target": "T1, Protein deacetylase HDAC6 (Homo sapiens)", "assay": "Inhibition of HDAC6 in human Huh-luc/neo7 cells assessed as alpha-tubulin acetylation at 20 to 100 uM by Western blotting analysis", "assay_type": "cell-based"}, "[6]": {"target": "T1, Protein deacetylase HDAC6 (Homo sapiens)", "assay": "Inhibition of HDAC6 in human Huh-luc/neo7 cells assessed as alpha-tubulin acetylation at 3 to 24 uM by Western blotting analysis", "assay_type": "cell-based"}}, "note": "Activity calls are given as the source filed them. The calls are words filed in the database; no cut-off is given here.", "data": [{"smiles": "Cc1ccc(C(=O)NO)cc1", "values": [{"measurement": "inhibition", "setting": "[1]", "result": "Active"}]}, {"smiles": "Cn1cccc(C(=O)NO)c1=O", "values": [{"measurement": "EC50", "setting": "[2]", "result": 12, "unit": "µM"}, {"measurement": "Ratio CC50/EC50", "setting": "[3]", "result": ">83"}, {"measurement": "CC50 at 72 h", "setting": "[4]", "result": "> 1000", "unit": "µM"}]}, {"smiles": "O=C(NO)c1ccncc1", "values": [{"measurement": "EC50", "setting": "[2]", "result": 17, "unit": "µM"}, {"measurement": "HDAC6 inhibition (active/not active)", "setting": "[5]", "result": "Active"}, {"measurement": "Ratio CC50/EC50", "setting": "[3]", "result": 12}, {"measurement": "CC50 at 72 h", "setting": "[4]", "result": 210, "unit": "µM"}]}, {"smiles": "O=C(NO)c1ccc(Cl)cc1", "values": [{"measurement": "inhibition", "setting": "[6]", "result": "Active"}]}, {"smiles": "O=C(NO)c1ccccc1", "values": [{"measurement": "HDAC6 inhibition (active/not active)", "setting": "[5]", "result": "Active"}]}, {"smiles": "COc1cccnc1C(=O)NO", "values": [{"measurement": "EC50", "setting": "[2]", "result": 5, "unit": "µM"}, {"measurement": "Ratio CC50/EC50", "setting": "[3]", "result": 180}, {"measurement": "CC50 at 72 h", "setting": "[4]", "result": 880, "unit": "µM"}]}, {"smiles": "CN(O)C(=O)c1ccccn1", "values": [{"measurement": "EC50", "setting": "[2]", "result": 240, "unit": "µM"}, {"measurement": "Ratio CC50/EC50", "setting": "[3]", "result": ">4"}, {"measurement": "CC50 at 72 h", "setting": "[4]", "result": "> 1000", "unit": "µM"}]}, {"smiles": "O=C(NO)c1ncccc1Cl", "values": [{"measurement": "EC50", "setting": "[2]", "result": 8, "unit": "µM"}, {"measurement": "Ratio CC50/EC50", "setting": "[3]", "result": 100}, {"measurement": "CC50 at 72 h", "setting": "[4]", "result": 800, "unit": "µM"}]}, {"smiles": "O=C(NO)c1cc[n+]([O-])cc1", "values": [{"measurement": "EC50", "setting": "[2]", "result": 17, "unit": "µM"}, {"measurement": "HDAC6 inhibition (active/not active)", "setting": "[5]", "result": "inactive"}, {"measurement": "Ratio CC50/EC50", "setting": "[3]", "result": ">59"}, {"measurement": "CC50 at 72 h", "setting": "[4]", "result": "> 1000", "unit": "µM"}]}, {"smiles": "CN(O)C(=O)c1cccc[n+]1[O-]", "values": [{"measurement": "EC50", "setting": "[2]", "result": "> 1000", "unit": "µM"}, {"measurement": "CC50 at 72 h", "setting": "[4]", "result": "> 1000", "unit": "µM"}]}, {"smiles": "CONC(=O)c1ccccn1", "values": [{"measurement": "EC50", "setting": "[2]", "result": "> 1000", "unit": "µM"}, {"measurement": "CC50 at 72 h", "setting": "[4]", "result": "> 1000", "unit": "µM"}]}, {"smiles": "O=C(NO)c1ccccn1", "values": [{"measurement": "EC50", "setting": "[2]", "result": 30, "unit": "µM"}, {"measurement": "HDAC6 inhibition (active/not active)", "setting": "[5]", "result": "inactive"}, {"measurement": "Ratio CC50/EC50", "setting": "[3]", "result": 24}, {"measurement": "CC50 at 72 h", "setting": "[4]", "result": 710, "unit": "µM"}]}, {"smiles": "O=C(NO)c1cccnc1", "note": "[NICOXAMAT]", "values": [{"measurement": "EC50", "setting": "[2]", "result": 25, "unit": "µM"}, {"measurement": "HDAC6 inhibition (active/not active)", "setting": "[5]", "result": "Active"}, {"measurement": "Ratio CC50/EC50", "setting": "[3]", "result": 18}, {"measurement": "CC50 at 72 h", "setting": "[4]", "result": 450, "unit": "µM"}]}, {"smiles": "O=C(NO)c1cccc[n+]1[O-]", "values": [{"measurement": "EC50", "setting": "[2]", "result": 6, "unit": "µM"}, {"measurement": "HDAC6 inhibition (active/not active)", "setting": "[5]", "result": "inactive"}, {"measurement": "Ratio CC50/EC50", "setting": "[3]", "result": 150}, {"measurement": "CC50 at 72 h", "setting": "[4]", "result": 900, "unit": "µM"}]}, {"smiles": "O=C(NO)c1ccc[n+]([O-])c1", "values": [{"measurement": "EC50", "setting": "[2]", "result": 20, "unit": "µM"}, {"measurement": "HDAC6 inhibition (active/not active)", "setting": "[5]", "result": "Active"}, {"measurement": "Ratio CC50/EC50", "setting": "[3]", "result": ">50"}, {"measurement": "CC50 at 72 h", "setting": "[4]", "result": "> 1000", "unit": "µM"}]}]}
